Where two headings read alike, the source gives them in different places.
Assays:
[1] = system: volunteer wheat (Triticum aestivum L.); conditions: cited from earlier work
barley and wheat = conditions: greenhouse studies; cited from earlier work
[2] = system: annual bluegrass (Poa annua L.); conditions: pre-emergence or early post-emergence at 0.8 to 4.5 kg/ha; cited from earlier work
corn = conditions: applied 3 weeks before planting at rates of 2.2 to 9.0 kg/ha; cited from earlier work
wheat crop plants = test: Own experiments: safening effect of mefenpyr-diethyl used with flufenacet; assay type: in vivo; conditions: used with flufenacet (WSSA group 15 herbicide)

Row | SMILES | control of volunteer wheat ([1]; 1.7 kg/ha or more, wheat in the one- to three-leaf stage) | control of volunteer wheat ([1]; applied pre-emergence soon after planting or at the end of November to wheat in the four-leaf to four-tiller stage) | susceptibility of barley and wheat to soil residues relative to corn (barley and wheat) | control of annual bluegrass [2] | corn yields (corn) | safening effect in wheat crop plants (wheat crop plants)
1 | CCOC1Oc2ccc(OS(C)(=O)=O)cc2C1(C)C (stereo not drawn) [Ethofumesate, 2-ethoxy-2,3-dihydro-3,3-dimethylbenzofuran-5-yl methanesulfonate] | eliminated the wheat | Wheat was not eliminated | about 10 times | eliminated annual bluegrass | reduced in proportion to the rate | –
2 | CCOC(=O)C1=NN(c2ccc(Cl)cc2Cl)C(C)(C(=O)OCC)C1 (stereo not drawn) [Mefenpyr-diethyl, ethyl 1-(2,4-dichlorophenyl)-5-(ethoxycarbonyl)-5-methyl-2-pyrazoline-3-carboxylate] | – | – | – | – | – | does not have a safening effect
